Laboratory results reported in ChEMBL document CHEMBL3046315, “Synthesis and Fungicidal Activity of New Thiophosphorylated Monoterpenoids and Related Compounds” (1996).

What was measured:
Type in all cases: functional
[1] = tested on: Athelia rolfsii; assay: Fungicidal activity against Athelia rolfsii assessed as growth inhibition at 100 ppm after 5 days by agar dilution test; details: Agroathelia rolfsii, 120 h; read-out: GI
[2] = tested on: Athelia rolfsii; assay: Fungicidal activity against Athelia rolfsii assessed as growth inhibition at 10 ppm after 5 days by agar dilution test; details: Agroathelia rolfsii, 120 h; read-out: GI
[3] = tested on: Pythium; assay: Fungicidal activity against Pythium sp. assessed as growth inhibition at 100 ppm after 5 days by agar dilution test; details: 120 h, read-out: GI
[4] = tested on: Pythium; assay: Fungicidal activity against Pythium sp. assessed as growth inhibition at 10 ppm after 5 days by agar dilution test; details: 120 h, read-out: GI

Question: For `COP(=S)(OC)OCCC(C)CCC=C(C)C` (configuration not stated), which inhibition of growth at 100 ppm [1] is on record?
Answer: 76.9%

Question: And the inhibition of growth at 10 ppm [2]?
Answer: 36.2%

Question: What about the inhibition of growth at 100 ppm [3] of the same compound?
Answer: 30%

Question: With `COP(=S)(OC)Oc1cc(C(C)C)ccc1C` as the compound, how does the inhibition of growth at 100 ppm [1] read?
Answer: 85.2%

Question: And the inhibition of growth at 10 ppm [2]?
Answer: 37.5%

Question: And the inhibition of growth at 100 ppm [3]?
Answer: 61.1%

Question: What about the inhibition of growth at 10 ppm [4] of the same compound?
Answer: 22.8%

Question: `COP(=S)(OC)Oc1cc(C)ccc1C(C)C` was tested. Which inhibition of growth at 100 ppm [1] did it give?
Answer: 84.3%

Question: What about the inhibition of growth at 10 ppm [2] of the same compound?
Answer: 29.3%

Question: What about the inhibition of growth at 100 ppm [3] of the same compound?
Answer: 67.4%

Question: What about the inhibition of growth at 10 ppm [4] of the same compound?
Answer: 32.5%

Question: How did the inhibition of growth at 100 ppm [1] turn out when `C=CCc1ccc(OP(=S)(OC)OC)c(OC)c1` was run?
Answer: 90.5%

Question: And the inhibition of growth at 10 ppm [2]?
Answer: 38.5%

Question: And the inhibition of growth at 100 ppm [3]?
Answer: 44.9%

Question: Which inhibition of growth at 100 ppm [1] does the source give for `COP(=S)(OC)OCCc1ccccc1` here?
Answer: 100%

Question: And the inhibition of growth at 10 ppm [2]?
Answer: 56.6%

Question: And the inhibition of growth at 100 ppm [3]?
Answer: 89.8%

Question: What about the inhibition of growth at 10 ppm [4] of the same compound?
Answer: 39.6%

Question: How did the inhibition of growth at 100 ppm [1] turn out when `CCOP(=S)(OCC)OCCC(C)CCC=C(C)C` (configuration not stated) was run?
Answer: 31.3%

Question: What about the inhibition of growth at 100 ppm [3] of the same compound?
Answer: 10.2%

Question: Which results are given for `CCOP(=S)(OCC)Oc1cc(C(C)C)ccc1C`?
Answer: inhibition of growth at 100 ppm [1]: 58.2%; inhibition of growth at 100 ppm [3]: 19.8%

Question: Which results are given for `CCOP(=S)(OCC)Oc1cc(C)ccc1C(C)C`?
Answer: inhibition of growth at 100 ppm [1]: 56.8%; inhibition of growth at 100 ppm [3]: 52.9%

Question: Which results are given for `C=CCc1ccc(OP(=S)(OCC)OCC)c(OC)c1`?
Answer: inhibition of growth at 100 ppm [1]: 60.2%; inhibition of growth at 100 ppm [3]: 34.3%

Question: For `CCOP(=S)(OCC)OCCc1ccccc1`, which inhibition of growth at 100 ppm [1] is on record?
Answer: 95.1%

Question: And the inhibition of growth at 10 ppm [2]?
Answer: 42.3%

Question: And the inhibition of growth at 100 ppm [3]?
Answer: 68.8%

Question: `Cc1ccc(C(C)C)cc1OP(=S)(Oc1cc(C(C)C)ccc1C)c1ccccc1` was tested. Which inhibition of growth at 100 ppm [1] did it give?
Answer: 0%

Question: What about the inhibition of growth at 100 ppm [3] of the same compound?
Answer: 0%

Question: `Cc1ccc(C(C)C)c(OP(=S)(Oc2cc(C)ccc2C(C)C)c2ccccc2)c1` was tested. Which inhibition of growth at 100 ppm [1] did it give?
Answer: 0%

Question: And the inhibition of growth at 100 ppm [3]?
Answer: 1.3%

Question: Which results are given for `CCOP(O)(=S)OCCC(C)CCC=C(C)C` (configuration not stated)?
Answer: inhibition of growth at 100 ppm [1]: 70.7%; inhibition of growth at 10 ppm [2]: 0%; inhibition of growth at 100 ppm [3]: 67%; inhibition of growth at 10 ppm [4]: 15.8%

Question: How did the inhibition of growth at 100 ppm [1] turn out when `CCOP(O)(=S)Oc1cc(C)ccc1C(C)C` (configuration not stated) was run?
Answer: 46%

Question: What about the inhibition of growth at 100 ppm [3] of the same compound?
Answer: 55.7%

Question: `C=CCc1ccc(OP(O)(=S)OCC)c(OC)c1` (configuration not stated) was tested. Which inhibition of growth at 100 ppm [1] did it give?
Answer: 24.7%

Question: What about the inhibition of growth at 100 ppm [3] of the same compound?
Answer: 37.3%

Question: With `CCOP(O)(=S)OCCc1ccccc1` (configuration not stated) as the compound, how does the inhibition of growth at 100 ppm [1] read?
Answer: 29.2%

Question: What about the inhibition of growth at 100 ppm [3] of the same compound?
Answer: 61.1%

Question: `CC(C)=CCCC(C)CCO` (configuration not stated) [CITRONELLOL] was tested. Which inhibition of growth at 100 ppm [1] did it give?
Answer: 23.9%

Question: And the inhibition of growth at 100 ppm [3]?
Answer: 68.9%

Question: And the inhibition of growth at 10 ppm [4]?
Answer: 0%

Question: What does the source list for `CCOP(=S)(OCCC(C)CCC=C(C)C)OCCC(C)CCC=C(C)C` (configuration not stated) [DICITRONELLYL PHOSPHOROTHIONATE]?
Answer: inhibition of growth at 100 ppm [1]: 30.3%; inhibition of growth at 100 ppm [3]: 64.5%

Question: What does the source list for `C=CCc1ccc(OP(=S)(OCC)Oc2ccc(CC=C)cc2OC)c(OC)c1` [DIEUGENOL PHOSPHOROTHIONATE]?
Answer: inhibition of growth at 100 ppm [1]: 6.1%; inhibition of growth at 100 ppm [3]: 34.6%

Question: For `CCOP(=S)(Oc1cc(C(C)C)ccc1C)Oc1cc(C(C)C)ccc1C` [DIISOTHYMOL PHOSPHOROTHIONATE], which inhibition of growth at 100 ppm [1] is on record?
Answer: 36.8%

Question: And the inhibition of growth at 100 ppm [3]?
Answer: 67%

Question: `CCOP(=S)(OCCc1ccccc1)OCCc1ccccc1` [DIPHENETHYL ETHYL PHOSPHOROTHIONATE] was tested. Which inhibition of growth at 100 ppm [1] did it give?
Answer: 33.4%

Question: What about the inhibition of growth at 100 ppm [3] of the same compound?
Answer: 23.3%

Question: How did the inhibition of growth at 100 ppm [1] turn out when `CCOP(=S)(Oc1cc(C)ccc1C(C)C)Oc1cc(C)ccc1C(C)C` [DITHYMOL PHOSPHOROTHIONATE] was run?
Answer: 30.3%

Question: And the inhibition of growth at 100 ppm [3]?
Answer: 58.4%

Question: What does the source list for `CCOP(O)(=S)Oc1cc(C(C)C)ccc1C` (configuration not stated) [ETHYL ISOTHYMYL HYDROGENPHOSPHOROTHIONATE]?
Answer: inhibition of growth at 100 ppm [1]: 54.9%; inhibition of growth at 100 ppm [3]: 71%; inhibition of growth at 10 ppm [4]: 10.4%

Question: `C=CCc1ccc(O)c(OC)c1` [EUGENOL] was tested. Which inhibition of growth at 100 ppm [1] did it give?
Answer: 67.6%

Question: What about the inhibition of growth at 10 ppm [2] of the same compound?
Answer: 5.9%

Question: And the inhibition of growth at 100 ppm [3]?
Answer: 92.7%

Question: And the inhibition of growth at 10 ppm [4]?
Answer: 7.4%

Question: What does the source list for `CC(C)OP(=O)(OC(C)C)SCc1ccccc1` [IPROBENFOS]?
Answer: inhibition of growth at 100 ppm [1]: 100%; inhibition of growth at 10 ppm [2]: 68.8%; inhibition of growth at 100 ppm [3]: 88.5%; inhibition of growth at 10 ppm [4]: 41.7%

Question: What does the source list for `Cc1ccc(O)c(C(C)C)c1` [ISOTHYMOL]?
Answer: inhibition of growth at 100 ppm [1]: 72.4%; inhibition of growth at 10 ppm [2]: 38%; inhibition of growth at 100 ppm [3]: 94.3%; inhibition of growth at 10 ppm [4]: 24.2%

Question: `OCCc1ccccc1` [PHENYLETHYL ALCOHOL] was tested. Which inhibition of growth at 100 ppm [1] did it give?
Answer: 0%

Question: And the inhibition of growth at 100 ppm [3]?
Answer: 50.9%

Question: `Cc1ccc(C(C)C)c(O)c1` [THYMOL] was tested. Which inhibition of growth at 100 ppm [1] did it give?
Answer: 71%

Question: And the inhibition of growth at 10 ppm [2]?
Answer: 28.3%

Question: And the inhibition of growth at 100 ppm [3]?
Answer: 93%

Question: What about the inhibition of growth at 10 ppm [4] of the same compound?
Answer: 29.6%
